Calls of active or inactive are those of the source. The rule behind the calls is not given here.
What was measured:
[1] = biological target: Sphingosine 1-phosphate receptor 3 (Homo sapiens, UniProt Q99500); assay: Agonist activity at S1P3 receptor (unknown origin) expressed in CHO cells incubated for 2 hrs by HTRF-IP1 assay; assay type: cell-based
[2] = biological target: Sphingosine 1-phosphate receptor 1 (Homo sapiens, UniProt P21453); assay: Agonist activity at S1P1 receptor (unknown origin) expressed in CHO cells incubated for 2 hrs by HTRF-IP1 assay; assay type: cell-based
Homo sapiens = species on record: Homo sapiens; assay: Selectivity ratio of EC50 for S1P3 receptor (unknown origin) to EC50 for S1P1 receptor (unknown origin)
Blood [3] = assay: Drug metabolism in Sprague-Dawley rat blood assessed as formation of 2-amino-2-(2-(4'-(2-(1-hydroxyethyl)oxazol-4-yl)biphenyl-4-yl)ethyl)propane-1,3-diol hydrochloride at 3 mg/kg, po measured at 0.08 to 48 hrs by LC-MS/MS analysis; assay type: ADME, organism-based; settings: in vivo
Rattus norvegicus = assay: Lymphopenia activity in Sprague-Dawley rat assessed as decrease in lymphocytes in peripheral blood at 3 mg/kg, po after 24 hrs by hematology analyzer; assay type: functional, organism-based
Blood [4] = assay: Drug metabolism in Sprague-Dawley rat blood assessed as formation of 2-amino-2-(2-(4'-(2-(2-hydroxypropyl)oxazol-4-yl)biphenyl-4-yl)ethyl)propane-1,3-diol hydrochloride at 3 mg/kg, po measured at 0.08 to 48 hrs by LC-MS/MS analysis; assay type: ADME, organism-based; settings: in vivo
Blood [5] = assay: Drug level in Sprague-Dawley rat blood assessed as compound formation treated with SYL927 at 3 mg/kg, po measured at 0.08 to 48 hrs by LC-MS/MS analysis; assay type: ADME, organism-based; settings: in vivo
Blood [6] = assay: Retention time of compound in Sprague-Dawley rat blood treated with SYL927 at 3 mg/kg, po by LC-MS/MS analysis; assay type: ADME, organism-based; settings: in vivo
Blood [7] = assay: Retention time of compound in Sprague-Dawley rat blood treated with SYL930 at 3 mg/kg, po by LC-MS/MS analysis; assay type: ADME, organism-based; settings: in vivo
Blood [8] = assay: Drug level in Sprague-Dawley rat blood assessed as compound formation treated with SYL930 at 3 mg/kg, po measured at 0.08 to 48 hrs by LC-MS/MS analysis; assay type: ADME, organism-based; settings: in vivo

Chain of Sphingosine 1-phosphate receptor 3 (Q99500 whole entry): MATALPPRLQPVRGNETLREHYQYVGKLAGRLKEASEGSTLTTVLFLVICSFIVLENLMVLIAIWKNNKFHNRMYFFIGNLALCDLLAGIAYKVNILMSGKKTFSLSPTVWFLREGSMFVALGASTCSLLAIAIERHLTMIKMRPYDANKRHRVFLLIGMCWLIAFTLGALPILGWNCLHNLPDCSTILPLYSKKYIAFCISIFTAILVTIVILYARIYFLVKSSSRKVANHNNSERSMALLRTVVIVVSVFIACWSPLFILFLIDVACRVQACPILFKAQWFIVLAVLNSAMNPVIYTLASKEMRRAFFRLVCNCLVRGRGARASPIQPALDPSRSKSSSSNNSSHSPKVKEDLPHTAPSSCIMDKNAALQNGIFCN
Chain of Sphingosine 1-phosphate receptor 1 (P21453 whole entry): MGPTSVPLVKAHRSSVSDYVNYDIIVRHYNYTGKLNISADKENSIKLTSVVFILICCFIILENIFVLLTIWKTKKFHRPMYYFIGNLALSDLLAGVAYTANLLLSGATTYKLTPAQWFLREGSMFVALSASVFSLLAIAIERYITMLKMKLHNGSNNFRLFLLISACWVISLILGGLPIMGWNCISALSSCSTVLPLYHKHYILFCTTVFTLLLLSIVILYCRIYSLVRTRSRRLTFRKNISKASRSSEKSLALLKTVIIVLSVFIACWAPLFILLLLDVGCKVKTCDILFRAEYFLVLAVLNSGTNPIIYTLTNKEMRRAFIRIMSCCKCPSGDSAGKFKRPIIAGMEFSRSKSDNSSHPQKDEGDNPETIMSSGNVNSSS

Row | SMILES | EC50 [1] | EC50 [2] | Ratio EC50 (Homo sapiens) | Drug metabolism (Blood [3]) | Drug metabolism (Blood [4]) | Drug metabolism (Blood [5]) | Retention_time (Blood [6]) | Retention_time (Blood [7]) | Drug metabolism (Blood [8]) | Activity (Rattus norvegicus)
1 | CCCc1nc(-c2ccc(-c3ccc(CCC(N)(CO)COP(=O)(O)O)cc3)cc2)co1 (stereo unspecified) | 0.484 µM | 0.0133 µM | 36 | – | – | – | – | – | – | –
2 | CCc1nc(-c2ccc(-c3ccc(CCC(N)(CO)CO)cc3)cc2)co1.Cl | > 10 µM | > 10 µM | – | metabolite_detected | – | – | – | – | – | Active
3 | CCc1nc(-c2ccc(-c3ccc(CCC(N)(CO)COP(=O)(O)O)cc3)cc2)co1 (stereo unspecified) | 1.06 µM | 0.007 µM | 151 | – | – | – | – | – | – | –
4 | CC(O)Cc1nc(-c2ccc(-c3ccc(CCC(N)(CO)CO)cc3)cc2)co1.Cl (stereo unspecified) | > 10 µM | 1.52 µM | > 6 | – | – | – | – | 13 min | metabolite_detected | Active

Now from value to compound, other results behind:

Row | EC50 [1] | EC50 [2] | Ratio EC50 (Homo sapiens) | Drug metabolism (Blood [3]) | Drug metabolism (Blood [4]) | Drug metabolism (Blood [5]) | Retention_time (Blood [6]) | Retention_time (Blood [7]) | Drug metabolism (Blood [8]) | SMILES | Activity (Rattus norvegicus)
5 | > 10 µM | 1.61 µM | > 6 | – | metabolite_detected | – | – | – | – | CCCc1nc(-c2ccc(-c3ccc(CCC(N)(CO)CO)cc3)cc2)co1.Cl | Active
6 | > 10 µM | > 10 µM | – | – | – | metabolite_detected | 6.6 min | – | – | CC(O)c1nc(-c2ccc(-c3ccc(CCC(N)(CO)CO)cc3)cc2)co1.Cl (stereo unspecified) | Active

Source: ChEMBL document CHEMBL3779869, “Synthesis, identification, and biological activity of metabolites of two novel selective S1P1 agonists” (Bioorg Med Chem, 2016)
